System: sAPPβ (BACE1 cleavage of SEAP-APPwt) in SY5Y-BACEGFP-SEAPAPPwt cells
Assay: cell-based BACE1 assay (sAPPβ modified ELISA)
Settings: for IC50(sAPPβ) / IC50: SAR study, 8 concentrations (30-0.01 μM), SY5Y-BACEGFP-SEAPAPPwt cells; for IC50: read-out: IC50(sAPPβ)
Procedure: FIG. 1. An sAPPβ assay utilized to identify inhibitors of BACE1. The assay utilizes SY5Y cells stably overexpressing BACE-GFP and SEAP-APPwt. Cells are incubated with a candidate compound for 6 hours prior to harvesting media. BACE1-mediated cleavage of APP results in the release of sAPPβ into the media. α-secretase, a competing enzyme that is non-amyloidogenic, also cleaves APP to release […]. Using an sAPPβ-specific antibody (sβwt), SEAP-sAPPβ is specifically captured in a modified ELISA assay. Detection is achieved by addition of the fluorescent alkaline phosphatase substrate, 4-methylumbelliferyl phosphate (4-MUP).
FIG. 13. […] Compounds were tested in SY5Y-BACEGFP-SEAPAPPwt cells using the cell-based BACE1 assay. Select compounds were also investigated for Aβ-lowering effect using a commercial Aβ ELISA kit (BioSource). All compounds were tested at 8 concentrations (30, 10, 3, 1, 0.3, 0.1, 0.03, and 0.01 μM), and data points were analyzed with Origin software and fitted using a logistic model for IC50 determination.
As described in the Examples below, and depicted in FIG. 1, an sAPPβ ELISA assay may comprise cells, for example, SY5Y cells, transfected with a BACE1 reporter construct, such as a GFP-tagged BACE1 (BACE-GFP), and a wild type APP reporter construct, such as a secreted alkaline phosphatase (SEAP)-tagged wild type APP (SEAP-APPwt). BACE1 cleavage of the reporter-tagged APP (e.g. SEAP-APPwt) may result in secretion into the media of SEAP-tagged sAPPβ, which may be collected and specifically captured using an sAPPβ cleavage site-specific antibody (e.g. stβwt). Following washing, a substrate may be used, for example, the fluorescent alkaline phosphatase substrate 4-methylumbelliferyl phosphate (4-MUP), to detect the captured SEAP-sAPPβ.
A cell-based modified ELISA assay for measuring sAPPβ, the secreted ectodomain of β-amyloid precursor protein (APP) following β-secretase (BACE1) cleavage, was used to identify a class of compounds that interfered with the first step of sAPPβ generation. This assay has been described in International Application PCT/US2007/015938 (Published as International Publication No. WO 08/008463), which is herein incorporated in its entirety for all purposes.
The SY5Y-BACEGFP-SEAPAPPwt cell based assay was developed to discover novel small molecule modulators of BACE1 activity. SY5Y cells were stably transfected with GFP-tagged BACE1 (BACE-GFP) and secreted alkaline phosphatase (SEAP)-tagged wildtype APP (SEAP-APPwt). BACE1 cleavage of SEAP-APPwt results in secretion into the media of SEAP-tagged sAPPβ, which is collected and specifically captured using an sAPP0 cleavage site-specific antibody (sβwt). After washing, the fluorescent alkaline phosphatase substrate 4-methylumbelliferyl phosphate (4-MUP) is used to detect the captured SEAP-sAPPβ (FIG. 1).
The 15 LDDN compounds selected based on their 3-point dose-response profile were tested at 12 concentrations (ranging from 0.1 nM to 30 μM) in the cell-based BACE1 assay. The assay was conducted in 96-well format to maximize the Z′ factor. Compounds were characterized in duplicate cell plates, each containing 12 doses of compound in triplicate. Cell viability was measured at 6 and 24 hours using Promega's Cell Titer-Glo kit according to the manufacturer's protocol. The dose-response curves for sAPPβ reduction were plotted using Origin software and fitted using a logistic model for IC50 determination.
27 structural analogs of LDN-0057228 were synthesized and tested using the cell-based BACE1 assay in SY5Y-BACEGFP-SEAPAPPwt cells (FIG. 13). 4 analogs, in addition to the parent compound, were also assessed for Aβ40 lowering activity using a commercial Aβ kit (BioSource). Because LDN-0057228 resembles CNS monoamine transporter inhibitors, this analog series was given the designation “CNS.” LDN-0057228 gave an unexpectedly low potency (IC50˜20 μM for both sAPPβ and Aβ40 reduction) compared to the ˜7 μM potency obtained using the same compound in FIG. 8.

Row | Compound | IC50(sAPPβ) | IC50 | further results
1 | NC(=O)[C@@H]1CCCN1CCOC(c1ccc(F)cc1)c1ccc(F)cc1 [CNS-16] | inactive |  | 
2 | Fc1ccc(C(OCCN2CC[C@H]2CNCCCc2ccccc2)c2ccc(F)cc2)cc1 [CNS-20] | inactive |  | 
3 | NC(=O)[C@H]1CCCN1CCOC(c1ccc(F)cc1)c1ccc(F)cc1 [CNS-11] | inactive |  | 
4 | NC[C@@H]1CCN1CCOC(c1ccc(F)cc1)c1ccc(F)cc1 [CNS-18] |  | > 50 µM | 
5 | BACE inhibitor IV [reference compound] |  |  | suppression of sAPPβ generation (10 μM, positive control, 384-well LDDN screen, on average): > 95%
6 | O=C(CCc1ccccc1)NC[C@@H]1CCCN1C(c1ccc(F)cc1)c1ccc(F)cc1 [CNS-26] |  | 32.1 µM | 
7 | Fc1ccc(C(OCCN2CCCC[C@H]2CNCCCc2ccccc2)c2ccc(F)cc2)cc1 [CNS-13] |  | 9 µM | 
8 | Fc1ccc(C(OCCNCCNCCCc2ccccc2)c2ccc(F)cc2)cc1 [CNS-22] | inactive |  | 
9 | NC[C@H]1CCCN1CCOC(c1ccc(F)cc1)c1ccc(F)cc1 [CNS-10] |  | 38.3 µM | 
10 | O=C(CCc1ccccc1)NCCNCCOC(c1ccc(F)cc1)c1ccc(F)cc1 [CNS-21] | inactive |  | 
11 | NC[C@@H]1CCCN1CCOC(c1ccc(F)cc1)c1ccc(F)cc1 [CNS-6] |  | 27.9 µM | 
12 | COC(=O)NC[C@@H]1CCCN1CCOC(c1ccc(F)cc1)c1ccc(F)cc1 [CNS-4] |  | 23.3 µM | 
13 | O=C(CCc1ccccc1)NC[C@@H]1CCN1CCOC(c1ccc(F)cc1)c1ccc(F)cc1 [CNS-19] | inactive |  | 
14 | O=C(CCc1ccccc1)NCCN(CCOC(c1ccc(F)cc1)c1ccc(F)cc1)CCOC(c1ccc(F)cc1)c1ccc(F)cc1 [CNS-23] | inactive |  | 
15 | O=C(CCc1ccccc1)NC[C@@H]1CCCCN1CCOC(c1ccc(F)cc1)c1ccc(F)cc1 [CNS-14] |  | 14 µM | 
16 | NC(=O)[C@@H]1CCCN1C(c1ccc(F)cc1)c1ccc(F)cc1 [CNS-24] | inactive |  | 
17 | NC[C@@H]1CCCCN1CCOC(c1ccc(F)cc1)c1ccc(F)cc1 [CNS-12] |  | > 50 µM | 
18 | NC(=O)[C@@H]1CCN1CCOC(c1ccc(F)cc1)c1ccc(F)cc1 [CNS-17] | inactive |  | 
19 | NC[C@@H]1CCCN1C(c1ccc(F)cc1)c1ccc(F)cc1 [CNS-25] |  | 31.4 µM | 
20 | O=C(CCc1ccccc1)NC[C@H]1CCCN1CCOC(c1ccc(F)cc1)c1ccc(F)cc1 [CNS-9] |  | 20.4 µM | 
21 | NC(=O)[C@@H]1CCCCN1CCOC(c1ccc(F)cc1)c1ccc(F)cc1 [CNS-15] | inactive |  | 
22 | Fc1ccc(C(c2ccc(F)cc2)N2CCC[C@H]2CNCCCc2ccccc2)cc1 [CNS-27] |  | 10.2 µM | 
23 | Fc1ccc(C(OCCN2CCC[C@H]2CNCCCc2ccccc2)c2ccc(F)cc2)cc1 [CNS-1] |  | 10.5 µM | 
24 | CC(=O)NC[C@@H]1CCCN1CCOC(c1ccc(F)cc1)c1ccc(F)cc1 [CNS-5] |  | 20.8 µM | 
25 | Fc1ccc(C(OCCN2CCC[C@@H]2CNCCCc2ccccc2)c2ccc(F)cc2)cc1 [CNS-8] |  | 5.7 µM | 

— US20110071124A1, “Compounds that Inhibit Production of sAPPB and AB and Uses Thereof” (The Trustees of Columbia University in the City of New York, priority 2008, published 2011)
